{"source": "patent US4613613A", "about": "“γ-butyrolactone derivatives, process for preparing the same and immunomodulating compositions containing the same as active ingredients” (Mitsubishi Yuka Pharmaceutical Co., Ltd., priority 1983, dated 1986)", "key": {"[1]": {"assay": "Acute Toxicity Test (oral, mortality by 3-days observation)", "conditions": "mouse, in vivo, ddY male mice", "protocol": "Using ddY strain male mice of 7-8 weeks old, each group consisting of 5 mice, a suspension of the present compound in a 1% tragacanth solution was administered orally. Then, mortality was examined by 3-days observation."}, "[2]": {"system": "adjuvant arthritis", "assay": "Adjuvant Arthritis Inhibiting Activity (paw volume)", "assay_type": "in vivo, rat (F-344 strain male rats)", "conditions": "measured after 24 days, * p < 0.05 (Ttest)", "protocol": "F-344 strain male rats of 9 weeks old (Nippon Charles River), each group consisting of 8-10 rats, were employed for assessment of adjuvant arthritis inhibiting activity of the present compounds Arthritis was induced by subsutaneous injection of 100 μl of a 6% paraffin oil suspension of Mycobacterium butyricum into hind paw. The test compound was suspended in a 1% tragacanth solution and then administered orally everyday from the day of adjuvant injection up to the 21st day at a volume of 5 ml/kg. After 24 days from the sensitization, paw volume was measured Oral administration of solely a 1% tragacanth solution was applied for control."}, "[3]": {"system": "living body", "conditions": "background, known immunomodulating agents; cited from earlier work"}, "[4]": {"conditions": "30 mg/Kg oral everyday to 21st day, Controls: 3.48 ± 0.11 (No. 23), 3.62 ± 0.06 (No. 40), 3.58 ± 0.20 (No. 83)"}, "[5]": {"conditions": "300 mg/Kg oral everyday to 21st day, Controls: 3.48 ± 0.11 (No. 23), 3.62 ± 0.06 (No. 40)"}}, "data": [{"smiles": "O=C(SCC1C(=O)OCC1c1ccc(Cl)cc1)c1ccccc1", "note": "(stereo not drawn) [Compound 74, α-benzoylthiomethyl-β-(p-chlorophenyl)-γ-butyrolactone]", "values": [{"measurement": "LD50 at 72 h", "setting": "[1]", "value": "> 4000", "unit": "mg/kg"}]}, {"smiles": "Cc1ccc(C(=O)SCC2C(=O)OCC2c2ccc(Cl)cc2)cc1", "note": "(stereo not drawn) [Compound 1, β-(p-chlorophenyl)-α-(p-methylbenzoylthiomethyl)-γ-butyrolactone]", "values": [{"measurement": "LD50 at 72 h", "setting": "[1]", "value": "> 4000", "unit": "mg/kg"}]}, {"smiles": "CC(=O)SCC1C(=O)OCC1c1ccccc1", "note": "(stereo not drawn) [Compound 40, α-acetylthiomethyl-β-phenyl-γ-butyrolactone]", "values": [{"measurement": "LD50 at 72 h", "setting": "[1]", "value": "> 2000", "unit": "mg/kg"}, {"measurement": "Paw volume", "setting": "[2]; [4]", "value": "3.18 ± 0.17", "unit": "mL"}, {"measurement": "Paw volume", "setting": "[2]; [5]", "value": "3.18 ± 0.18", "unit": "mL"}]}, {"smiles": "O=C([O-])c1ccccc1Nc1cc(Cl)ccc1C(=O)[O-].[Na+].[Na+]", "note": "[N-(2-carboxyphenyl)-4-chloroanthranilic acid disodium salt]", "values": [{"measurement": "toxicity to a living body (in words)", "setting": "[3]", "value": "strong toxicity"}]}, {"smiles": "O=C1OCC(c2ccccc2)C1CSCc1ccccc1", "note": "(stereo not shown) [Compound 84]", "values": [{"measurement": "LD50 at 72 h", "setting": "[1]", "value": "> 4000", "unit": "mg/kg"}]}, {"smiles": "COc1ccc(C2COC(=O)C2CSC2CCCCC2)cc1", "note": "(stereo not drawn) [Compound 83, α-cyclohexylthiomethyl-β-(p-methoxyphenyl)-γ-butyrolactone]", "values": [{"measurement": "Paw volume", "setting": "[2]; [4]", "value": "3.00 ± 0.16", "unit": "mL"}]}, {"smiles": "Cc1ccc(C(=O)SCC2C(=O)OCC2c2ccccc2)cc1", "note": "(stereo not shown) [Compound 7]", "values": [{"measurement": "LD50 at 72 h", "setting": "[1]", "value": "> 4000", "unit": "mg/kg"}]}, {"smiles": "CC(C)(S)[C@@H](N)C(=O)O", "note": "[D-penicillamine]", "values": [{"measurement": "toxicity to a living body (in words)", "setting": "[3]", "value": "strong toxicity"}]}, {"smiles": "c1ccc([C@H]2CN3CCSC3=N2)cc1", "note": "[Levamisole, levamisole, reference compound]", "values": [{"measurement": "toxicity to a living body (in words)", "setting": "[3]", "value": "strong toxicity"}, {"measurement": "LD50 at 72 h", "setting": "[1]", "value": "< 1000", "unit": "mg/kg"}]}, {"smiles": "O=C(SC[C@@H]1C(=O)OC[C@H]1c1ccc(Cl)cc1)c1ccc(F)cc1", "note": "(relative stereo) [Compound 23]", "values": [{"measurement": "LD50 at 72 h", "setting": "[1]", "value": "> 4000", "unit": "mg/kg"}, {"measurement": "Paw volume", "setting": "[2]; 3 mg/Kg oral everyday to 21st day, Control 3.48 ± 0.11", "value": "2.84 ± 0.25", "unit": "mL"}, {"measurement": "Paw volume", "setting": "[2]; [4]", "value": "2.78 ± 0.23", "unit": "mL"}, {"measurement": "Paw volume", "setting": "[2]; [5]", "value": "3.03 ± 0.25", "unit": "mL"}]}]}
